This note sets out measurements from PMC11002716 (ACS chemical biology, 2022).

As a reminder, the Kd is the free concentration of one partner at which half of the binding sites on the other are occupied at equilibrium, for simple one-to-one binding.

Test [1] concerns the target fluorescein-labeled KB-752. The experiment in a line: MST.
For test [2], the system named is HEK293 cells overexpressing the SNAP-β2 adrenergic receptor (Gs signaling pathway). Description: Whole-cell Iso-induced cAMP accumulation assay. It is filed as cell-based.
In test [3] the test system is Gi signaling (δ–opioid receptor, AC). The experiment in a line: Cell-free ELISA-based cAMP assay on NG108–15 membrane preparations. Type of test: biochemical. Conditions: Fsk+DADLE.
Test [4] deals with Gs signaling (β2–adrenergic receptor, AC). The test is described as above. Type of test: biochemical.
The target in the next test is Gαi1·GDP (UniProt P63096 2-354). The experiment in a line: MST.
Sequence of Gαi1·GDP (UniProt P63096 2-354) (P63096 2-354): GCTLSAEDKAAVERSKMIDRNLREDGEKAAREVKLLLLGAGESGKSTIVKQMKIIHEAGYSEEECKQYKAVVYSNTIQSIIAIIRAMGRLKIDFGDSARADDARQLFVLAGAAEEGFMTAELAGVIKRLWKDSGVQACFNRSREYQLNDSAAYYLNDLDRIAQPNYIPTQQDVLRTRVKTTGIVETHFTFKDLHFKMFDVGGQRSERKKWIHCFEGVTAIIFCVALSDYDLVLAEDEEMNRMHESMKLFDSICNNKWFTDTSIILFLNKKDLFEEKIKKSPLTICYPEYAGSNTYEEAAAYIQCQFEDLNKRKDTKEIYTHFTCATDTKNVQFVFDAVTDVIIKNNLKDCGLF

Ends that are not written are not given here.

Sequence of Gαi1·GDP (from UniProt P63096 2-354) (natural protein) (P63096 2-354): as above

“Gαi1·GDP (from UniProt P63096 2-354) (natural protein)”: the Kd in test [1] is 345 nM. Regarding SRVTWYDFLMEDTKSR-OH [KB–752], in test [2], the “effect on Gαs in the whole cell assay” value is listed as “no effect”. Besides, the “effect on DADLE-mediated inhibition of the AC activity” value in test [3] was “no effect”. Also, in test [4], the “effect on Gs signaling / functional regulation of Gαs in cell-free ELISA” value was “inhibit Gs signaling”. For {5(6)‑carboxyfluorescein}-RWLRALRYP [GPM-1 Y5A, fluorescein-labeled], the Kd in the test with Gαi1·GDP came out at 285 ± 40 nM.
